The results in this text go back to ChEMBL document CHEMBL5233245, “Monocarboxylate transporter 1 and 4 inhibitors as potential therapeutics for treating solid tumours: A review with structure-activity relationship insights” (Eur J Med Chem, 2020).

Molecules are shown by their SMILES.

Experiment [1] concerns the target T1, Monocarboxylate transporter 1 (Homo sapiens, UniProt P53985).
T1 sequence (P53985 whole entry): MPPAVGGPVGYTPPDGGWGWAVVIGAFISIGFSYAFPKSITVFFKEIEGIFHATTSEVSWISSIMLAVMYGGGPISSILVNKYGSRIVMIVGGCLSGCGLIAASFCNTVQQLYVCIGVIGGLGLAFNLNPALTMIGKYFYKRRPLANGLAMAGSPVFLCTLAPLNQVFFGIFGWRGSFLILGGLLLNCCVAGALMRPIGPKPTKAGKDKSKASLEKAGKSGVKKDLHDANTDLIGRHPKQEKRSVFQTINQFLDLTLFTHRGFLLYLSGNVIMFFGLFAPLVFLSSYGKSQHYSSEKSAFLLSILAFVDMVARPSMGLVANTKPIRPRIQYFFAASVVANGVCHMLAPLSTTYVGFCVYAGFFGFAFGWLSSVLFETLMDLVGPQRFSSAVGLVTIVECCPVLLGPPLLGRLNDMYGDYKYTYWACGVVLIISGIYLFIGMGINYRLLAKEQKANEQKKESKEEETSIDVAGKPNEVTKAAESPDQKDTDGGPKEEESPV
The experiment can be described thus: Binding affinity to MCT1 (unknown origin) assessed as inhibition constant.

Experiment [2] addresses T2, Monocarboxylate transporter 1 (Rattus norvegicus, UniProt P53987).
T2 sequence (P53987 whole entry): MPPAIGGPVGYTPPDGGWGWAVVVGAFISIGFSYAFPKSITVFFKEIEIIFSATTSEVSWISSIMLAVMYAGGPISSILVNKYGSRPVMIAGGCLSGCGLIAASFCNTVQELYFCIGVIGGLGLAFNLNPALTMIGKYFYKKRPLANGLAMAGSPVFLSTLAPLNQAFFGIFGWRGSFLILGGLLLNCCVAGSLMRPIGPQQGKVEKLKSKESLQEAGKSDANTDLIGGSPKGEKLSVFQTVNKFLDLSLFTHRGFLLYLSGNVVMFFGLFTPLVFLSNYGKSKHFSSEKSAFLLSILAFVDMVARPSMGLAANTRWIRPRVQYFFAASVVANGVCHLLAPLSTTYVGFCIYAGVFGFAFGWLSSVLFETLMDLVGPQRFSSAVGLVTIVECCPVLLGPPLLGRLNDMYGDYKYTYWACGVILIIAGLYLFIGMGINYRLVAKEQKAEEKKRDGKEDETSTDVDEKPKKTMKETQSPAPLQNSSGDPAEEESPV
The experiment can be described thus: Binding affinity to MCT1 in rat Erythrocyte assessed as inhibition constant. Type of experiment: cell-based.

In experiment [3] the target is T3, Monocarboxylate transporter 2 (Rattus norvegicus, UniProt Q63344).
T3 sequence (Q63344 whole entry): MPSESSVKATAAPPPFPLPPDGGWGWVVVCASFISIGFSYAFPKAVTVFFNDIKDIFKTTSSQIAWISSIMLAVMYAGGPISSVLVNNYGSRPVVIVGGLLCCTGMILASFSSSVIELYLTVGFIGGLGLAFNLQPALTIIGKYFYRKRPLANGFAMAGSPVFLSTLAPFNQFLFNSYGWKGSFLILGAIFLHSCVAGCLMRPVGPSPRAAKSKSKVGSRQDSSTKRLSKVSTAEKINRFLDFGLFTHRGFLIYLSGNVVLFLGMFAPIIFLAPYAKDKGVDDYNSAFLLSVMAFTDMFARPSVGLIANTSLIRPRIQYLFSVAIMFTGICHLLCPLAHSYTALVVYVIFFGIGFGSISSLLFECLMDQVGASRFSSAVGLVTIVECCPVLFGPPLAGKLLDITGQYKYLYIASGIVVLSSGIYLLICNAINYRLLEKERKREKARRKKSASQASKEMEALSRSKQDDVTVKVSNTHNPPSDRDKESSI
The experiment can be described thus: Binding affinity to MCT2 in rat Erythrocyte assessed as inhibition constant. The class given is cell-based.

Experiment [4] has as its system Raji. The experiment can be described thus: Cytotoxicity against human Raji cells assessed as inhibition of cell growth by MTT assay. The class given is functional, cell-based.
In experiment [5] the target is T1, Monocarboxylate transporter 1. The experiment is described as follows: Inhibition of MCT1 (unknown origin) assessed as reduction in [14C]lactate uptake incubated for 20 mins by liquid scintillation counting analysis.
For the next experiment, the system named is MDA-MB-231. The experiment can be described thus: Cytotoxicity against human MDA-MB-231 cells assessed as inhibition of cell growth. Type of experiment: functional, cell-based.
Experiment [6] has as its target T2, Monocarboxylate transporter 1. The experiment is described as follows: Inhibition of MCT1 in rat Brain-like endothelial cells incubated for 15 mins in presence of [14C]lactic acid by scintillation counter assay. Type of experiment: cell-based.
The next experiment relates to Mus musculus. The experiment is described as follows: Antitumor activity against human WiDr cells xenografted in CD-1 mouse assessed as reduction in tumor growth at 25 mg/kg,ip qd measured after 16 days. The class given is functional. Further details: scale not given: the % may be the effect or the level left. Particulars: time 16 day.
Experiment [7] deals with Raji. The experiment can be described thus: Antiproliferative activity against human Raji cells assessed as inhibition of cell growth by MTT assay. Type of experiment: functional, cell-based.
Experiment [8] addresses T2, Monocarboxylate transporter 1. The experiment can be described thus: Inhibition of MCT1 in rat Brain-like endothelial cells incubated for 15 mins in presence of [14C]lactate by […]. Type of experiment: cell-based.
Experiment [9] has as its target T4, Monocarboxylate transporter 4 (Homo sapiens, UniProt O15427).
T4 sequence (O15427 whole entry): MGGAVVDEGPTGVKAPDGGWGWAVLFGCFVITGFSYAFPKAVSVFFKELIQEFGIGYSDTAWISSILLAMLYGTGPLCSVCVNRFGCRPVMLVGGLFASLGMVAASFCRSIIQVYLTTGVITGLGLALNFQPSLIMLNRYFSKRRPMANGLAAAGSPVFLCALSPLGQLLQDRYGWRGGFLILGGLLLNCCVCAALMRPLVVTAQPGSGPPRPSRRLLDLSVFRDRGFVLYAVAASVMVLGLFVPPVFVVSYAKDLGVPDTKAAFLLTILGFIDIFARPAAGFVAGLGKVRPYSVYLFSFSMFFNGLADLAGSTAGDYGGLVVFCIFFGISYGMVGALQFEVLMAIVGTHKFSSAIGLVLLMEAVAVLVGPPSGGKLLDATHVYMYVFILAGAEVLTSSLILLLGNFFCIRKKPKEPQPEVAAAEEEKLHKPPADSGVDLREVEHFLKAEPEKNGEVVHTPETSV
The experiment is described as follows: Inhibition of MCT4 (unknown origin).

For experiment [10], the target named is T1, Monocarboxylate transporter 1. The experiment is described as follows: Inhibition of MCT1 (unknown origin).
Experiment [11] deals with T4, Monocarboxylate transporter 4. The experiment is described as follows: Binding affinity to human MCT4 expressed in Xenopus laevis oocytes assessed as inhibition constant in presence of [14C]lactate by fluorescence assay.

Regarding `Cc1[nH]nc(C(F)(F)F)c1Cc1sc2c(c1C(=O)N1C[C@](C)(O)CO1)c(=O)n(C)c(=O)n2C(C)C` [AZD3965], in experiment [1], the Ki is 2 nM. In the case of `Cc1n[nH]c(C)c1Cc1sc2c(c1C(=O)N1C[C@@H](O)CO1)c(=O)n(C)c(=O)n2CC(C)C`, the Ki in experiment [2] was 2 nM; in experiment [3], less than 10 nM. `Cc1cc(=O)c2c(OCCCO)cc(OCc3ccc4ccccc4c3)cc2o1`: the EC50 with Raji [4] stood at 1000 nM. For `COc1cc(N2CCCCC2)ccc1/C=C(\C#N)C(=O)O`, in experiment [5], the IC50 came out at 25 nM. In the case of `COC(=O)[C@@](O)(CO)COC(=O)c1nn(-c2ccc(N(Cc3ccc(F)cc3)Cc3ccc(F)cc3)cc2)c2ccccc12`, the IC50 in the experiment with MDA-MB-231 was 3020 nM. On to `N#C/C(=C\c1cn(-c2ccccc2)c2ccccc12)C(=O)O`, for which the IC50 in experiment [6] was determined as 12.8 nM. As for `COc1cc(N2CCCC2)ccc1/C=C(\C#N)C(=O)O`, the IC50 in experiment [5] is 48 nM.

For the compound `CC(C)(C)[Si](OCCOc1ccc(/C=C(\C#N)C(=O)O)cc1)(c1ccccc1)c1ccccc1`, in the experiment with Mus musculus, the Activity worked out at 28%.

Take `CC(C)Cn1c(=O)n(C)c(=O)c2nc(CCCCCO)c(COc3ccc4ccccc4c3)nc21`: the EC50 with Raji [7] was less than 50 nM.

As for `N#C/C(=C\c1cn(-c2ccccn2)c2ccccc12)C(=O)O`, the IC50 in experiment [6] is greater than 1000 nM. Regarding `CC(C)c1cc(=O)c2c(OCc3ccccc3CO)cc(OCc3ccc4ccccc4c3)cc2o1`, in the experiment on Raji [4], the half-maximal effective concentration (EC50) was greater than 100000 nM. As to `COC(=O)[C@@](O)(CO)COC(=O)c1nn(-c2ccc(N(Cc3ccccc3)Cc3ccccc3)cc2)c2ccccc12`, the IC50 in the experiment on MDA-MB-231 came out at 2330 nM. In the case of `CCCCCN(CCCCC)c1ccc(/C=C(\C#N)C(=O)O)c(OC)c1`, the IC50 in experiment [5] was determined as 34 nM. Take `N#C/C(=C\c1ccc(OCCBr)cc1)C(=O)O`: the IC50 in experiment [8] was greater than 5000 nM. In the case of `N#C/C(=C\c1ccc(O)cc1)C(=O)O` [alpha-CYANO-4-HYDROXYCINNAMIC ACID], the concentration for half-maximal inhibition (IC50) in [9] was greater than 150000 nM; in experiment [10], 100000 nM. For the compound `COc1cc(N(Cc2ccccc2)Cc2ccccc2)ccc1/C=C(\C#N)C(=O)O`, the IC50 in [5] came to 37 nM. Consider `CC(C)c1cc(=O)c2c(OCCCO)cc(OCc3ccc4ccccc4c3)cc2o1`, for which, in the experiment with Raji [4], the EC50 was 100 nM. As to `N#C/C(=C\c1ccc(OCCO)cc1)C(=O)O`, in experiment [8], the IC50 was greater than 5000 nM. As to `COc1cc(N(CC(C)C)CC(C)C)ccc1/C=C(\C#N)C(=O)O`, in [5], the IC50 was found to be 11 nM. For `N#C/C(=C\c1cn(Cc2ccccc2)c2ccccc12)C(=O)O`, the IC50 in [6] amounted to 65.9 nM. Regarding `CC(C)(OCc1nn(Cc2ccccc2)c2ccccc12)C(=O)O` [BINDARIT], the Ki in experiment [11] stood at 30200 nM. As for `CC(C)(C)[Si](Oc1ccc(/C=C(\C#N)C(=O)O)cc1)(c1ccccc1)c1ccccc1`, the Activity in the experiment with Mus musculus stood at 28%.
